{
  "source": "patent US12509451B2",
  "about": "“Heteroaryl amide inhibitors of CD38” (NAPA THERAPEUTICS LTD., priority 2020, dated 2025)",
  "key": {"CD38 [1]": {"molecular_target": "T1, CD38 (Mus musculus, UniProt P56528)", "T1 construct": "aged mice (male C57BL6/J, 22 months old) were fasted for 4 hr; from tissue; host or cells: C57BL6/J mice (aged, DIO obese or LPS-challenged); liver, spleen, plasma", "T1 sequence (P56528 1-304)": "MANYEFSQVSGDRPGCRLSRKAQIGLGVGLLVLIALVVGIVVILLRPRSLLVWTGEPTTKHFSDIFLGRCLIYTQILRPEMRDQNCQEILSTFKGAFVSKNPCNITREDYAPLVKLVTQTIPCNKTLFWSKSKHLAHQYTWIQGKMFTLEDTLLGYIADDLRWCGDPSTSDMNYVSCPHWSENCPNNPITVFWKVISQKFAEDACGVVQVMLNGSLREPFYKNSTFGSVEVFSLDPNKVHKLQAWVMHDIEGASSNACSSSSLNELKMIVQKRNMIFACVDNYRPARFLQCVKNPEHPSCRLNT", "assay": "In vivo efficacy against CD38 in obese mice, acute oral administration, liver NAD+ metabolites"}, "CD38 [2]": {"molecular_target": "T1, CD38", "assay": "In vivo efficacy against CD38 in aged mice, BID for 5 days, liver NAD+ metabolites", "details": "3 hr post-dosing", "experimental": "(§1) The in vivo efficacy of Compound 32 against the human CD38 enzyme was tested in aged mice after oral administration and determined by mass spec (MS) analysis of NAD+ metabolites levels in liver tissue. The two main CD38 substrates, NAD+ and NMN, and the 2 main byproducts of the CD38 enzymatic reaction, NAM and ADPR, were measured.\n(§2) Compound 32 was administered to aged mice (male DIO C57BL6/J, 19-22 months old) via oral gavage at a concentration of 3 mg/kg and 10 mg/kg BID for 5 days. At day 5, mice were humanely euthanized for liver tissue harvesting 3 hr post-dosing. A vehicle control (DMSO: Solutol HS 15: 80% Captisol (20% in water)(5:15:80 v/v)) was included to assess baseline NAD+ metabolites levels.\n(§3) The procedure for tissue sample preparation and UPLC-MS/MS methods were adapted from Trammell et al. (2013) Compu. Struct. Biotechnol. J. […] (https://www.ncbi.nlm.nih.gov/pmc/articles/PMC3962138/). Frozen liver tissue was pulverized and resuspended in the extraction buffer (3:1 ethanol:10 mM aq. HEPES, pH 7.1). The samples were vortexed, sonicated briefly in a bath sonicator, and shaken at 55° C. for 3 min at 1,200 rpm. Samples were then centrifuged at 16,000×g for 10 min at 4° C., and the supernatant was dried by speedvac. The dried pellet was resuspended in 97% 10 mM ammonium acetate/3% acetonitrile, centrifuged at 16,000×g for 10 min at 4° C. and 2 μL was injected for LCMS analysis.\n(§4) The UPLC-MS/MS analysis to measure NAD+ metabolites was performed using a Vanquish UHPLC system and a Q Exactive Orbitrap mass spectrometer with H-ESI ion source both from Thermo Scientific. UPLC separation was performed on a Hypercarb (2.1×100 mm, 5 μm particle size, Thermo) column following the method described in Trammell et al. (2013). Acquisition was carried out in positive ion, Parallel Reaction Monitoring (PRM) mode and targeted […] (t-SIM). The Thermo Xcalibur QualBrowser system (version 4.2.47) and Freestyle (version 1.8.51.0) softwares was used for the data processing. For relative fold change, peak areas were normalized with respective internal standards, normalized to weight of the tissue sample used, and calculated as fold change relative at 0 h timepoint/vehicle group.\nas §1, with “39” for “32”, “spec” for “spec (MS)”\nas §2, with “39” for “32”, “of” for “of 3 mg/kg and”"}, "CD38 [3]": {"molecular_target": "T1, CD38", "assay": "In vivo efficacy against CD38 in obese mice, chronic oral administration 49 days, liver NAD+ metabolites", "details": "10 mg/kg BID oral, 4 hr post-dosing", "experimental": "as §1, with “obese” for “aged”\n(§5) Obese mice (male DIO C57BL6/J, 65 weeks old) treated for 49 days with compound 32 via oral gavage at a concentration of 10 mg/kg BID. On day 49, mice were humanely euthanized for liver tissue harvesting at 4 hr post-dosing. A vehicle control (1% Methylcellulose) was included to assess baseline NAD+ metabolites levels.\nas §3, §4\nas §1, with “39” for “32”, “obese” for “aged”, “spec” for “spec (MS)”\nas §5, with “39” for “32”"}, "CD38 [4]": {"molecular_target": "T1, CD38", "assay": "LPS-induced inflammation in mice, MS analysis of NAD+ metabolism in spleen and liver", "format": "in vivo", "experimental": "The in vivo efficacy of Compound 39 against the human CD38 enzyme after LPS challenge was assessed. The effects of Compound 39 (10 mg/kg and 30 mg/kg) on inflammato cytokines, inflammation markers and NAD+ levels at 4 h and 8 h points after LPS-induced inflammation in 12 weeks old male C57BL/6J mice were evaluated.\nAnimals were euthanized by terminal cardiac blood puncture immediately after terminal CO2, 4 h and 8 h after LPS administration. At necropsy, the tissues (Liver, Plasma, Spleen, Kidney, Lungs, Heart, Visceral Adipose Tissue, Muscle-Gastrocnemius) were collected and quick frozen in liquid nitrogen. The blood was collected in a BD Microtainer® K2EDTA Additive Tube, centrifuge at 1000 g for 10 min at 4° C. and plasma was store at −80° C.)."}, "[5]": {"details": "single 10 mg/kg oral dose, 1 hour post administration"}, "[6]": {"details": "single 1 mg/kg and 10 mg/kg oral dose"}, "[7]": {"details": "30 mg/kg, 8 hours post LPS challenge"}},
  "data": [
    {"smiles": "O=C(Nc1ccnc(C(F)(F)F)c1)c1cc(OC2CC2)cc(-n2ccnc2)n1", "note": "[Compound 32, 4-cyclopropoxy-6-(1H-imidazol-1-yl)-N-(2-(trifluoromethyl)pyridin-4-yl)picolinamide]", "values": [
      {"measurement": "ADPR levels in liver", "setting": "CD38 [1]; single 3 mg/kg oral dose", "value": "decrease"},
      {"measurement": "NAD+ levels in liver", "setting": "CD38 [1]; single 3 mg/kg oral dose", "value": "increase"},
      {"measurement": "NAM levels in liver", "setting": "CD38 [1]; single 3 mg/kg oral dose", "value": "decrease"},
      {"measurement": "NMN levels in liver", "setting": "CD38 [1]; single 3 mg/kg oral dose", "value": "increase"},
      {"measurement": "ADPR levels in liver", "setting": "CD38 [1]; [5]", "value": "decrease"},
      {"measurement": "NAD+ levels in liver", "setting": "CD38 [1]; [5]", "value": "remarkably increase"},
      {"measurement": "NAM levels in liver", "setting": "CD38 [1]; [5]", "value": "decrease"},
      {"measurement": "NMN levels in liver", "setting": "CD38 [1]; [5]", "value": "remarkably increase"},
      {"measurement": "ADPR levels in liver", "setting": "CD38 [2]; 3 mg/kg and 10 mg/kg BID oral", "value": "decrease"},
      {"measurement": "NAD+ levels in liver", "setting": "CD38 [2]; 3 mg/kg and 10 mg/kg BID oral", "value": "significantly increase"},
      {"measurement": "NAM levels in liver", "setting": "CD38 [2]; 3 mg/kg and 10 mg/kg BID oral", "value": "decrease"},
      {"measurement": "NMN levels in liver", "setting": "CD38 [2]; 3 mg/kg and 10 mg/kg BID oral", "value": "significantly increase"},
      {"measurement": "ADPR levels in liver", "setting": "CD38 [3]", "value": "significantly decrease"},
      {"measurement": "NAM levels in liver", "setting": "CD38 [3]", "value": "significantly decrease"}
    ]},
    {"smiles": "COCCOc1cc(C(=O)Nc2ccnc(C(F)(F)F)c2)nc(-n2ccnc2)n1", "note": "[Compound 39, 2-(1H-imidazol-1-yl)-6-(2-methoxyethoxy)-N-(2-(trifluoromethyl)pyridin-4-yl)pyrimidine-4-carboxamide]", "values": [
      {"measurement": "ADPR levels in liver", "setting": "CD38 [1]; [6]", "value": "decrease"},
      {"measurement": "NAD+ levels in liver", "setting": "CD38 [1]; [6]", "value": "increase"},
      {"measurement": "NAM levels in liver", "setting": "CD38 [1]; [6]", "value": "decrease"},
      {"measurement": "NMN levels in liver", "setting": "CD38 [1]; [6]", "value": "increase"},
      {"measurement": "ADPR levels in liver", "setting": "CD38 [2]; 10 mg/kg BID oral", "value": "decrease"},
      {"measurement": "NAD+ levels in liver", "setting": "CD38 [2]; 10 mg/kg BID oral", "value": "increase"},
      {"measurement": "NAM levels in liver", "setting": "CD38 [2]; 10 mg/kg BID oral", "value": "decrease"},
      {"measurement": "increase of NAD+ levels in liver", "setting": "CD38 [4]; 10 mg/kg, 8 hours post LPS challenge", "value": 2, "unit": "fold"},
      {"measurement": "decrease of NAM levels in liver", "setting": "CD38 [4]; [7]", "value": 38, "unit": "%"},
      {"measurement": "increase of NAD+ levels in spleen", "setting": "CD38 [4]; [7]", "value": 2.3, "unit": "fold"},
      {"measurement": "decrease in ADPR levels in spleen", "setting": "CD38 [4]; 30 mg/kg, 8 h treatment", "value": 40, "unit": "%"},
      {"measurement": "ADPR levels in liver", "setting": "CD38 [4]; treatment arms, 4 hours post LPS challenge", "value": "decrease"},
      {"measurement": "ADPR levels in liver", "setting": "CD38 [3]", "value": "decrease"},
      {"measurement": "NAD+ levels in liver", "setting": "CD38 [3]", "value": "significantly increase"},
      {"measurement": "NAM levels in liver", "setting": "CD38 [3]", "value": "decrease"},
      {"measurement": "NMN levels in liver", "setting": "CD38 [3]", "value": "significantly increase"}
    ]}
  ]
}
